This note sets out measurements from patent US6239151A, “Compounds as inhibitor of tumor necrosis factor alpha release” (Hoffmann-La Roche Inc., priority 1998, dated 2001).

The test deals with LPS-induced TNF-α release (THP1 cells). The test can be described thus: Inhibition of LPS-induced TNF-α release from THP1 cells (ELISA). Format: cell-based. The note with it: Homo sapiens, THP-1, LPS 2 mg/ml, 3 hours at 37° C., TNF-α by ELISA, read-out: IC50 (concentration giving 50% inhibition of LPS-induced TNF-α release). How it is done: THP1 cells were cultivated in RPMI 1640 medium supplemented with antibiotics and 10% foetal calf serum, harvested by centrifugation and diluted to 5×10^5 cells/ml in the above medium supplemented with 20 mM HEPES buffer. Aliquots ([…]) of the cell suspension were plated out on 96 well culture plates and incubated for 0.5 hour at 37° C. prior to the addition of the test compounds. The latter were dissolved in dimethyl sulphoxide (DMSO) to a stock concentration of 1.2 mM which was diluted with phosphate buffered saline/10% DMSO solution to provide test compounds in final concentrations of 10^-9 to 10^-5 M, with each concentration being tested in duplicate. The cells were incubated with the test compounds for 0.5 hour at 37° C., LPS (bacterial lipopolysaccharide) was then added to a concentration of 2 mg/ml and incubation was continued for 3 hours at 37° C. in an atmosphere containing 5% CO2 and at 95% relative humidity. After centrifugation at 260 g for 10 minutes an aliquot of each supernatant was removed and the amount of TNF-α was estimated by ELISA (R & D Systems Europe Ltd., Abingdon, England). The concentration of test compound which brings about 50% inhibition of LPS-induced TNF-α release (IC50) was computed from the dose-response curve.
The results obtained in the foregoing test with representative compounds of formula I are compiled in the following Table.
(In general: An ELISA detects its analyte on a solid surface through an enzyme-linked reagent.)

In the case of `CC(C)C[C@@H](C(=O)NN(CC(C)C)C(=O)C(C)O)[C@H](C/C=C/c1ccccc1)C(=O)NO` (mixture of isomers) [B, (E)-2(R)-[1(S)-(Hydroxycarbamoyl)-4-phenyl-3-butenyl]-2'-(2(RS)-hydroxypropionyl)-2'-isobutyl-4-methylvalerohydrazide], the IC50 was found to be 589 nM.

For `CC(C)C[C@@H](C(=O)NN(CC(C)C)C(=O)[C@@H](C)N)[C@H](C/C=C/c1ccccc1)C(=O)NO` [A, (E)-2'-(D-Alanyl)-2(R)-[1(S)-(hydroxycarbamoyl)-4-phenyl-3-butenyl]-2'-isobutyl-4-methylvalerohydrazide], the IC50 stood at 303 nM.

As to `CC(C)C[C@@H](C(=O)NN(CC(C)C)C(=O)Cn1ccnc1)[C@H](C/C=C/c1ccccc1)C(=O)NO` [C, (E)-2(R)-[1(S)-(Hydroxycarbamoyl)-4-phenyl-3-butenyl]-2'-[2-(1-imidazolyl)acetyl]-2'-isobutyl-4-methylvalerohydrazide], the IC50 stood at 201 nM.

For `CC(C)C[C@@H](C(=O)NN(CC(C)C)C(=O)C1CCNCC1)[C@H](C/C=C/c1ccccc1)C(=O)NO` [D, (E)-2(R)-[1(S)-(Hydroxycarbamoyl)-4-phenyl-3-butenyl]-2'-isobutyl-4-methyl-2'-[(4-piperidinyl)carbonyl]valerohydrazide], the IC50 was determined as 345 nM.
